Like-named read-outs stand apart in the source and are kept apart here.
Experiments:
[1] = test system: WEEV genome replicon; conditions: read-out: IC50, inhibition of luciferase expression in WEEV replicon assay; cited from earlier work
[2] = test system: FMV-infected BE(2)-C cells; test: Antiviral assay in FMV-infected BE; type: cell-based
[3] = test system: WEEV genome replicon; test: organism not typed; type: cell-based; conditions: for IC50: read-out: IC50, inhibition of luciferase expression in WEEV replicon assay

## O=C(NCCc1ccncc1)C1CCN(C(=O)c2cc3ccccc3n2Cc2ccc(Cl)cc2)CC1 [compound 2]
[1]
  IC50: 0.53 ± 0.08 µM
[2]; 25 μM
  Enhancement of infected cell viability: two-fold enhancement

## O=C(c1cc2ccccc2n1Cc1ccc(Cl)cc1)N1CCC(/C=C/CCc2ccncc2)CC1 [compound 17]
[3]
  Activity in WEEV replicon assay, in words: lost all activity
  IC50: > 50 µM

## O=C(c1cc2ccccc2n1Cc1ccc(Cl)cc1)N1CCC(/C=C\CCc2ccncc2)CC1 [compound 18]
[3]
  Activity in WEEV replicon assay, in words: lost all activity
  IC50: > 50 µM

## O=C(NCCc1ccncc1)C1=CCN(C(=O)c2cc3ccccc3n2Cc2ccc(Cl)cc2)CC1 [compound 22]
[3]
  Loss of potency relative to lead 2 in WEEV replicon assay: ~10 fold

## CC1(C(=O)NCCc2ccncc2)CCN(C(=O)c2cc3ccccc3n2Cc2ccc(Cl)cc2)CC1 [compound 23]
[3]
  Activity in WEEV replicon assay, in words: lost all activity

## O=C(NCCc1ccncc1)[C@H]1[C@@H]2CCN(C(=O)c3cc4ccccc4n3Cc3ccc(Cl)cc3)C[C@@H]21 [compound 26]
[3]
  Loss of potency relative to lead 2 in WEEV replicon assay: over 20 fold

## O=C(NCCc1ccncc1)C1CC2(C1)CN(C(=O)c1cc3ccccc3n1Cc1ccc(Cl)cc1)C2 [compound 28]
[3]
  Loss of potency relative to lead 2 in WEEV replicon assay: over 20 fold

## O=C(NCCc1ccncc1)C1CCCN(C(=O)c2cc3ccccc3n2Cc2ccc(Cl)cc2)CC1 (centres unmarked) [compound 29]
[2]; 5 μM
  Improvement in infected cell viability versus negative control: nearly two-fold improvement

Source: article PMC8272561 (Bioorganic & medicinal chemistry letters, 2021)
